Reference: patent US9044442B2, “Peptidomimetic compounds as immunomodulators” (AURIGENE DISCOVERY TECHNOLOGIES LIMITED, priority 2012, dated 2015)

Legend:
[1] = test system: MDA-MB-231 tumor cells expressing PD-L1; experiment: Rescue of mouse splenocyte proliferation inhibited by MDA-MB-231 tumor cells expressing PD-L1 (CFSE based assay); format: cell-based; settings: for Fold induction: % splenocyte proliferation / % background proliferation, background 1.0, stimulated 3.7; for % Splenocyte proliferation: mouse splenocytes + anti-CD3/CD28 + MDA-MB-231 cells + compound, 72 hrs, background 20, stimulated 74
Text: (§1) The effect of PD1 derived peptidomimetics on mouse splenocyte proliferation inhibited by recombinant PDL1 or tumor cells expressing PDL; analyzed by Fluorescence Activated Cell Shorting (FACS) method using CFSE (Carboxyfluorescein Diacetate Succinimidyl Ester) labeling.
Rescue of Mouse Splenocyte Proliferation in the Presence of Recombinant PD-L1/MDA MB-231 Cells Expressing PDL1: […]
(§2) Mouse splenocytes harvested from 6-8 weeks old C57 BL6 mice; RPMI 1640 (GIBCO, Cat #11875); DMEM with high glucose (GIBCO, Cat # D6429); Fetal Bovine Serum [Hyclone, Cat # SH30071.03]; Penicillin (10000 unit/ml)-Streptomycin (10,000 μg/ml) Liquid (GIBCO, Cat #15140-122); MEM Sodium Pyruvate solution 100 mM (100×), Liquid (GIBCO, Cat #11360); Nonessential amino acid (GIBCO, Cat #11140); L-Glutamine (GIBCO, Cat #25030); Anti-CD3 antibody (eBiosciences—16-0032); Anti-CD28 antibody (eBiosciences—16-0281); ACK lysis buffer (imp (GIBCO, Cat #-A10492); Histopaque (density-1.083 gm/ml) (SIGMA 10831); Trypan blue solution (SIGMA-T8154); 2 ml Norm Ject Luer Lock syringe—(Sigma 2014-12); 40 μm nylon cell strainer (BD FALCON 35230); Hemacytometer (Bright line-SIGMA Z359629); FACS Buffer (PBS/0.1% BSA): Phosphate Buffered Saline (PBS) pH 7.2 (HiMedia TS1006) with 0.1% Bovine Serum Albumin (BSA) (SIGMA A7050) and sodium azide (SIGMA 08591); 5 mM stock solution of CFSE: CFSE stock solution was prepared by diluting lyophilized CFSE with 180 μL of Di methyl Sulfoxide (DMSO C2H6SO, SIGMA-D-5879) and aliquoted in to tubes for further use. Working concentrations were titrated from 10 μM to 1 μM. (eBioscience—650850-85); 0.05% Trypsin and 0.02% EDTA (SIGMA 59417C); 96-well format ELISA plates (Corning CLS3390); BD FACS caliber (E6016); Recombinant Human B7-H1/PDL1 Fc Chimera (rh-PDL-1, cat no: 156-B7-100);
Splenocytes harvested in a 50 ml falcon tube by mashing mouse spleen in a 40 μm cell strainer were further treated with 1 ml ACK lysis buffer for 5 mins at room temperature. After washing with 9 ml of RPMI complete media, cells were re-suspended in 3 ml of 1×PBS in a 15 ml tube. 3 ml of Histopaque was added carefully to the bottom of the tube without disturbing overlaying splenocyte suspension. After centrifuging at 800×g for 20 mins at room temperature, the opaque layer of splenocytes was collected carefully without disturbing/mixing the layers. Splenocytes were washed twice with cold 1×PBS followed by total cell counting using Trypan Blue exclusion method and used further for cell based assays.
Splenocytes were cultured in RPMI complete media (RPMI+10% fetal bovine serum+1 mM sodium pyruvate+10,000 units/ml penicillin and 10,000 μg/ml streptomycin) and maintained in a CO2 incubator with 5% CO2 at 37° C.
CFSE is a dye that passively diffuses into cells and binds to intracellular proteins. 1×10^6 cells/ml of harvested splenocytes were treated with 5 μM of CFSE in pre-warmed 1×PBS/0.1% BSA solution for 10 mins at 37° C. Excess CFSE was quenched using 5 volumes of ice-cold culture media to the cells and incubated on ice for 5 mins. CFSE labelled splenocytes were further given three washes with ice cold complete RPMI media. CFSE labelled 1×10^5 splenocytes added to wells containing either MDA-MB231 cells (1×10^5 cells cultured in high glucose DMEM medium) or recombinant human PDL-1 (100 ng/ml) and test compounds. Splenocytes were stimulated with anti-mouse CD3 and anti-mouse CD28 antibody (1 μg/ml each), and the culture was further incubated for 72 hrs at 37° C. with 5% CO2. Cells were harvested and washed thrice with ice cold FACS buffer and % proliferation was analyzed by flow cytometry with 488 nm excitation and 521 nm emission filters.
(§3) Percent splenocyte proliferation was analyzed using cell quest FACS program and fold induction was calculated by normalizing individual values to % background proliferation. […]

recombinant human PDL-1 = target: T1, recombinant human PDL-1 (Homo sapiens, UniProt Q9NZQ7); experiment: Rescue of mouse splenocyte proliferation inhibited by recombinant human PDL-1 (CFSE, FACS); format: cell-based; settings: mouse splenocytes, anti-CD3/CD28 stimulated, rh-PDL-1 100 ng/ml, 72 hrs
T1 construct: Fc (Fc chimera); purchased R&D Systems 156-B7-100
Text: as §1
Rescue of Mouse Splenocyte Proliferation in the Presence of Recombinant PD-L1/MDA MB-231 Cells Expressing PDL1:
Alternatively, recombinant human PD-L1 (rh-PDL-1, cat no: 156-B7-100, R&D Systems) was also used as the source of PD-Ll.
as §2, with “Working concentrations were titrated from 10 μM to 1 μM. (eBioscience—650850-85); 0.05% Trypsin and 0.02% EDTA (SIGMA 59417C); 96-well format ELISA plates (Corning CLS3390); BD FACS caliber (E6016); Recombinant Human B7-H1/PDL1 Fc Chimera (rh-PDL-1, cat no: 156-B7-100);” left out
CFSE is a dye that passively diffuses into cells and binds to intracellular proteins. […] Cells were harvested and washed thrice with ice cold FACS buffer and % proliferation was analyzed by flow cytometry with 488 nm excitation and 521 nm emission filters.
as §3

recombinant mouse PDL-1 = target: T2, recombinant mouse PDL-1 (Mus musculus, UniProt Q9EP73); experiment: Rescue of splenocyte effector function, IFN-γ release by ELISA, recombinant mouse PDL-1; format: cell-based; settings: mouse splenocytes, anti-CD3/CD28, PDL-1 100 ng/ml, 72 hrs, read-out: EC50 (nM), IFN-γ release, in presence of recombinant mouse PDL-1
T2 construct: purchased R&D Systems 1019-B7-100
Method: (§4) 1×10^5 splenocytes (isolated as described earlier) were added to wells containing recombinant mouse PDL-1 (cat no: 1019-B7-100, R&D Systems) or PDL-2 (Cat no: 1022-PL-100, R&D Systems) (both at 100 ng/ml) and test peptidomimetics. Splenocytes were stimulated with anti-mouse CD3 (eBiosciences—16-0032) and anti-mouse CD28 antibody (eBiosciences—16-0281) (1 μg/ml each) and the culture was further incubated for 72 hrs at 37° C. with 5% CO2. After 72 hours of incubation the cell culture supernatants were collected after brief centrifugation of culture plates (200 g×5 mins at 4° C.) and processed for mouse IFN-γ measurement by ELISA following manufacturer's protocol (e Biosciences; 88-7314). In brief, 96 well ELISA plates were coated with 100 μl/well of capture antibody in coating buffer and incubated overnight at 4° C. Plates were washed five times with wash buffer and further blocked with 200 μl of 1× assay diluents for 1 hr at RT. Following wash step, 100 μl of cell culture supernatants were added to wells and further incubated for 2 hrs at RT. Appropriate standards were also included. After wash step, plate was incubated for one hour with 100 μl/well of detection antibody. The wash step was repeated and the plate was incubated for 30 minutes with 100 μl/well of Avidin-HRP. The plate was washed 7 times with wash buffer and incubated for 15 minutes with 100 μl/well of substrate solution. 50 μl of stop solution was added to each well and the plate was read at 450 nm. The absorbance values were then plotted against the standards and the concentration of IFN-γ was determined using GraphPad Prism software. Each experimental condition was carried out in triplicates. Percent IFN-γ release for each test compound concentration was calculated by normalising individual test compound IFN-γ values to anti-CD3+anti-CD28 stimulated IFN-γ value. The percent IFN-γ release by test compounds were calculated using following formula: % IFN-γ release=[(Test compound IFN-γ−PDL background control)/(anti-CD3+anti-CD28 positive control−PDL background control)]*100. […]

recombinant mouse PDL-2 = target: T3, recombinant mouse PDL-2 (Mus musculus, UniProt Q9WUL5); experiment: Rescue of splenocyte effector function, IFN-γ release by ELISA, recombinant mouse PDL-2; format: cell-based; settings: mouse splenocytes, anti-CD3/CD28, PDL-2 100 ng/ml, 72 hrs, read-out: EC50 (nM), IFN-γ release, in presence of recombinant mouse PDL-2
T3 construct: purchased R&D Systems 1022-PL-100
Method: as §4

[2] = test system: CT26 (murine colon carcinoma) cells; experiment: In vivo efficacy on primary tumour growth in CT-26 colon cancer model; parameters: species or system mouse; settings: male Balb/c mice, 3 mg/kg
Method: Two million CT26 (murine colon carcinoma) cells injected to male Balb/c mice (s.c) on day 1 and dosing started on Day 5. Each group consisted of ten animals. Tumor volumes were measured 3 times a week, body weight and clinical signs monitored daily. Compound #2 dosed at 3 mg/kg, inhibited the tumour growth to the extent of 46 percent (p<0. p<0.01, 2-way ANOVA) (FIG. 2).

T1 sequence (Q9NZQ7 with tags, fused parts or gaps limits assumed): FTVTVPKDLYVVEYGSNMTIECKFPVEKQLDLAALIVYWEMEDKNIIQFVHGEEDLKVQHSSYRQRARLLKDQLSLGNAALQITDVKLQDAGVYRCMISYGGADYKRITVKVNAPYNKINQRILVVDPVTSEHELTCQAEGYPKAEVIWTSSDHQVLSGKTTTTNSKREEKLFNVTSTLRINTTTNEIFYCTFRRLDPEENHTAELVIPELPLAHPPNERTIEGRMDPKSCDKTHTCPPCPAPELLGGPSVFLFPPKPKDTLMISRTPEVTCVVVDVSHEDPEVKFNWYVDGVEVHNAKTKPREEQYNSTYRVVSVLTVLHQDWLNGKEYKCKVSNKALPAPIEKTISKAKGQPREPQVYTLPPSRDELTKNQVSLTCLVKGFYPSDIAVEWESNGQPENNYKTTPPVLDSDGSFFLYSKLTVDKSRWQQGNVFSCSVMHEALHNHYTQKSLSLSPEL
T3 sequence (Q9WUL5 with tags, fused parts or gaps limits assumed): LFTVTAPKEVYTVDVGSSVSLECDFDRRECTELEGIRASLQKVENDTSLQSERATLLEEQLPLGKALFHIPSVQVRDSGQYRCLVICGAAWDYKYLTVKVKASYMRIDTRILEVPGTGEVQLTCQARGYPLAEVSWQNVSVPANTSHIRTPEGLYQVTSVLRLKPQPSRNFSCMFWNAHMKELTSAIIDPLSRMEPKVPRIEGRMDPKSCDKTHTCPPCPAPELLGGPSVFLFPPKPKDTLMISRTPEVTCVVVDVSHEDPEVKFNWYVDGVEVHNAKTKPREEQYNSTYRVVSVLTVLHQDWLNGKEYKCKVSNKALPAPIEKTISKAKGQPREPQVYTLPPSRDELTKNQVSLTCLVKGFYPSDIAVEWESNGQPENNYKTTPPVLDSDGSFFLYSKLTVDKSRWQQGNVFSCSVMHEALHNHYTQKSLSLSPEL
T2 sequence (Q9EP73 with tags, fused parts or gaps limits assumed): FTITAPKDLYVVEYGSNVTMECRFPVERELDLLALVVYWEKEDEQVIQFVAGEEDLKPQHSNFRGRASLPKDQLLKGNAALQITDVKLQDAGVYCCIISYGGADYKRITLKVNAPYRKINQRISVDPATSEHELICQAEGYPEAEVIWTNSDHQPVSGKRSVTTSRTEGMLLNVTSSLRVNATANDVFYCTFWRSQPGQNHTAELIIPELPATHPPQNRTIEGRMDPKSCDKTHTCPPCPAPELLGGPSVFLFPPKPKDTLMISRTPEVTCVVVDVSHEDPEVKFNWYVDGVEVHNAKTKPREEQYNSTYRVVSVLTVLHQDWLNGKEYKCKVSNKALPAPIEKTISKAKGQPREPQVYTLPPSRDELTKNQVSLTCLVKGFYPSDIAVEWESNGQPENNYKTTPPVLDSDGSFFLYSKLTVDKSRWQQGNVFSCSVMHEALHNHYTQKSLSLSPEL

Row | SMILES | Fold induction [1] | % Splenocyte proliferation [1] [%] | further results
1 | CC(O)[C@H](NC(=O)N[C@@H](CC(N)=O)C(=O)NNC(=O)[C@@H](N)CO)C(N)=O (some centres unmarked) [Compound 6] | 2.3 | 46 | –
2 | CC(O)[C@H](NC(=O)N[C@H](CC(N)=O)C(=O)NNC(=O)[C@H](N)CO)C(=O)O (some centres unmarked) [Compound 15] | 2.9 | 58 | –
3 | CCC(C)[C@H](NC(=O)N[C@@H](CC(N)=O)C(=O)NNC(=O)[C@@H](N)CO)C(=O)O (some centres unmarked) [Compound 8] | 3 | 60 | –
4 | CC(O)[C@H](NC(=O)N[C@@H](CC(N)=O)C(=O)NNC(=O)[C@@H](N)CO)C(=O)O (some centres unmarked) [Compound 2] | 3.4 | 68 | EC50 (recombinant human PDL-1): 23 nM; EC50 (recombinant mouse PDL-1): 30 nM; EC50 (recombinant mouse PDL-2): 40 nM; body weight reduction during the period of dosing ([2]; CT26 model): no body weight reduction; clinical signs during the period of dosing ([2]; CT26 model): no clinical signs; inhibition of tumour growth ([2]; CT26 s.c., dosing from Day 5): 46%
5 | COC[C@H](N)C(=O)NNC(=O)[C@H](CC(N)=O)NC(=O)N[C@H](C(=O)O)C(C)O (some centres unmarked) [Compound 11] | 2.2 | 44 | –
6 | CC(O)[C@H](N)C(=O)NNC(=O)[C@H](CC(N)=O)NC(=O)N[C@@H](CO)C(=O)O (some centres unmarked) [Compound 12] | – | – | EC50 (recombinant human PDL-1): 22 nM; EC50 (recombinant mouse PDL-1): 27 nM; EC50 (recombinant mouse PDL-2): 62 nM
7 | NC(=O)C[C@H](N)C(=O)NNC(=O)[C@@H](N)CO [Compound 1] | 2.8 | 56 | –
8 | CN[C@@H](CO)C(=O)NNC(=O)[C@H](CC(N)=O)NC(=O)N[C@H](C(=O)O)C(C)O (some centres unmarked) [Compound 4] | 2.8 | 56 | –
9 | COC(=O)[C@@H](NC(=O)N[C@@H](CC(N)=O)C(=O)NNC(=O)[C@@H](N)CO)C(C)O (some centres unmarked) [Compound 10] | 3.4 | 67 | –
10 | CC(O)[C@@H](N)C(=O)NNC(=O)[C@@H](CC(N)=O)NC(=O)N[C@H](CO)C(=O)O (some centres unmarked) [Compound 13] | 3.4 | 67 | EC50 (recombinant human PDL-1): 35 nM; EC50 (recombinant mouse PDL-1): 40 nM; EC50 (recombinant mouse PDL-2): 30 nM
11 | CNC(=O)N[C@H](C(=O)N[C@@H](CC(N)=O)C(=O)NNC(=O)[C@@H](N)CO)C(C)O (some centres unmarked) [Compound 18] | 3 | 59 | –
12 | CC(O)[C@H](N)C(=O)N[C@@H](CC(N)=O)C(=O)NNC(=O)[C@@H](N)CO (some centres unmarked) [Compound 5] | 3 | 60 | –
13 | C[C@H](NC(=O)N[C@@H](CC(N)=O)C(=O)NNC(=O)[C@@H](N)CO)C(=O)O [Compound 17] | 3 | 59 | –
14 | NC(=O)C[C@H](NC(=O)N[C@@H](CC(=O)O)C(=O)O)C(=O)NNC(=O)[C@@H](N)CO [Compound 7] | 2.9 | 57 | –
